“Also recorded” adds a separate entry of the source.
Tests used:
[1] = target: T1, synthetic NS4A (Hepatitis C virus genotype 1b, UniProt Q9WMX2); assay: Competition assay with [3H] labeled azidoacylthiourea for NS4A binding; design: species or system HCV
T1 construct: The full length of NS4A (54 amino acids) is synthesized; made in house
Description: (§1) To determine whether acylthiourea compounds bind to NS4A, a photo-affinity labeling is carried out, in which an [^3H] labeled photo-reactive azidoacylthiourea, 1-(5-Azido-benzofuran-2-carbonyl)-3-(4-pentyloxy-3-trifluoromethyl-phenyl)-thiourea, is mixed with synthetic NS4A at various molar ratios. The mixture is incubated at 31° C. for one hour. Samples are then illuminated by a UV lamp (254 nm wavelength) at room temperature for 7 minutes. After denaturing with equal volume of Laemmli buffer containing 5% mercaptoethanol at 99° C. for 5 minutes, samples are separated on a 10-20% SDS-PAGE. After electrophoresis, the gel is fixed with 30% methanol—10% acetic acid overnight. Then the gel is treated with 3H enhancer solution (PerkinElmer) at room temperature for one hour, and subsequently with water for 30 minutes, and dried under vacuum.
To study the binding specificity of [^3H] labeled 1-(5-Azido-benzofuran-2-carbonyl)-3-(4-pentyloxy-3-trifluoromethyl-phenyl)-thiourea to synthetic NS4A, several structurally related compounds are used in the following competition assays. Non-labeled 1-(5-Azido-benzofuran-2-carbonyl)-3-(4-pentyloxy-3-trifluoromethyl-phenyl)-thiourea shares the same structure with [^3H] labeled 1-(5-Azido-benzofuran-2-carbonyl)-3-(4-pentyloxy-3-trifluoromethyl-phenyl)-thiourea. 1-(5-Azido-benzofuran-2-carbonyl)-3-(4-pentyloxy-3-trifluoromethyl-phenyl)-urea differs in structure from 1-(5-Azido-benzofuran-2-carbonyl)-3-(4-pentyloxy-3-trifluoromethyl-phenyl)-thiourea in that 1-(5-Azido-benzofuran-2-carbonyl)-3-(4-pentyloxy-3-trifluoromethyl-phenyl)-urea has a carbonyl group where 1-(5-Azido-benzofuran-2-carbonyl)-3-(4-pentyloxy-3-trifluoromethyl-phenyl)-thiourea has a thiocarbonyl group. […]

[2] = system: HCV replicon cells; assay: HCV replicon assay (RNA dot blot or NPTII ELISA); type: cell-based
Description: Cells expressing the HCV replicon are seeded onto the internal wells of 96-well plates at a density of 7,000 cells per well. One day later, different dilutions of the test compounds are added to corresponding wells and the plates are incubated in a CO2 incubator for 72 hours. After treatment, the cells are lysed with 70 μl RLN buffer per well (50 mM Tris-HCl [pH8.0], 140 mM NaCl, 1.5 mM MgCl2, 0.5% Nonidet P-40, 1,000 units/mL RNAsin and 1 mM […]). The total lysate is transferred to a new U bottom 96-well plate and nuclei and cell debris are pelleted with a brief spin (300×g for 3 minutes). 50 μl of supernatant is removed from the well and loaded directly onto manifold wells equipped with Nylon membranes. HCV RNA is hybridized at 58° C. overnight using a labeled HCV RNA probe containing a negative strand sequence complement to the NS5B region. Hybridization buffer is composed of 50% formamide, 5×SSPE, 1% SDS, 5× Denhart's solution, and sheared denatured salmon sperm DNA. Following hybridization, the membrane is washed with washing buffer (0.1×SSC, 0.1% SDS) at room temperature for two hours, then at 65° C. for 30 minutes. The radioactivity in each well is counted on a Microbeta counter and EC50 is calculated based on cpm. Alternatively, HCV replicon cells are trypsinized for 5-10 minutes in a CO2 incubator. Then, cells are placed in a 15 mL tube, and are spun at 1000 rpm for 4 minutes and trypsin solution is removed. Cell pellets are washed once with PBS and spun 4 minutes at 1000 rpm.
Trypsinization and wash steps, supra, are conducted efficiently to minimize cell death. PBS is removed and cells are resuspended in 4 mL fresh PBS and cells are seeded at a dilution of 5000 cells per well to 96 well plates. Test compounds are diluted in 96 well U bottom plates with DMEM (high glucose) (BRL, Catalog #21063) supplemented with 10% FBS, L-glutamine, and non-essential amino acid. 100 uL of test compound is loaded into each well. […]
100 uL of development solution (TMB one-step substrate system) is added and plates are developed in the dark for 10 to 30 minutes. […] OD450 is measured. […]

[3] = target: T1, synthetic NS4A; assay: Photo-affinity labeling; type: binding, HCV; settings: [3H] labeled compound, UV 254 nm, SDS-PAGE
Description: Experiments are undertaken to investigate the affinity and binding specificity of acylthiourea compounds to NS4A. The full length of NS4A (54 amino acids) is synthesized, and characterized with mass spectral analysis and HPLC profiling. An NS4A sample is then dissolved in 100% dimethylsulphoxide (DMSO) at a concentration of 2 μg/μl and subjected to a 10-20% SDS-PAGE with a reducing reagent. A 6 kDa protein band, consistent with the size of NS4A, is detected in the gel following a Coomassie blue staining. The NS4A identity of this band is further confirmed by a Western blot with monoclonal anti-NS4A antibody.
as §1, with “Then the gel is treated with 3H enhancer solution (PerkinElmer) at room temperature for one hour, and subsequently with water for 30 minutes, and dried under vacuum.” left out

[4] = target: NS3 protease domain (Hepatitis C virus genotype 1b, UniProt Q9WMX2); assay: Photo-affinity labeling; type: binding, HCV; settings: [3H] labeled compound; same molar ratio as NS4A (3.3 μM)
Sequence of NS3 protease domain (Q9WMX2 1027-1208): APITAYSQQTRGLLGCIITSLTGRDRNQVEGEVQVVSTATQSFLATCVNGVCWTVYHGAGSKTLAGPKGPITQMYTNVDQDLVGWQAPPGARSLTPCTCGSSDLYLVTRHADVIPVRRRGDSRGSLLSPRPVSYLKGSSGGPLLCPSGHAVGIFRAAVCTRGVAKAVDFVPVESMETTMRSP
Description: as §1
(§2) One band corresponds to NS4A monomer, which is also detectable with Coomassie blue staining (FIG. 3). […] Without being bound by any particular theory, it is believed that this band may be composed largely of polymer form or aggregates of NS4A. At the same time, full-length NS3 and NS3 protease domain is included in this binding assay.

[5] = target: full-length NS3 (Hepatitis C virus genotype 1b, UniProt Q9WMX2); assay: Photo-affinity labeling; type: binding, HCV; settings: [3H] labeled compound; same molar ratio as NS4A (3.3 μM)
Sequence of full-length NS3 (Q9WMX2 1027-1657): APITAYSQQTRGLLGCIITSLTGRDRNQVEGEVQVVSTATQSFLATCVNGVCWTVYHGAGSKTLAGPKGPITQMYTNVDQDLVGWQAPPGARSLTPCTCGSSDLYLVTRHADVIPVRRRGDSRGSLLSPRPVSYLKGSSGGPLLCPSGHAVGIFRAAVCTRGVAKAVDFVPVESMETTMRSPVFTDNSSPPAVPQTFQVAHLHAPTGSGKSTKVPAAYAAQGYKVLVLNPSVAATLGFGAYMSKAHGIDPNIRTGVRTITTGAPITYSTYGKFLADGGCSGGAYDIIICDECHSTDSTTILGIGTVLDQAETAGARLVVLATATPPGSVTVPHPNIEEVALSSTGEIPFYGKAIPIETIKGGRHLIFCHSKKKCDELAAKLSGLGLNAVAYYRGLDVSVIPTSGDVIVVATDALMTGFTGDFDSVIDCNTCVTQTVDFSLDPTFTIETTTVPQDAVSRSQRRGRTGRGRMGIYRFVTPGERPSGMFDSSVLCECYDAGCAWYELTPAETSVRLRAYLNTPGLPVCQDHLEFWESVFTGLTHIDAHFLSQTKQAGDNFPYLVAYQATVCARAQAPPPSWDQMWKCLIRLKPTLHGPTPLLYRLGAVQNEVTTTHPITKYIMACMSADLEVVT
Description: as §1, §2

T1 sequence (Q9WMX2 1658-1711): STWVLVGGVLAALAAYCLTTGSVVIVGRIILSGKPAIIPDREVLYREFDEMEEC

SMILES | competition with [3H] labeled 1-(5-Azido-benzofuran-2-carbonyl)-3-(4-pentyloxy-3-trifluoromethyl-phenyl)-thiourea for NS4A binding [1] | anti-HCV activity in replicon cells [2] | binding to synthetic NS4A [3] | binding to NS3 protease domain [4] | binding to full-length NS3 [5]
CCCCCOc1ccc(NC(=S)NC(=O)c2cccnc2)cc1C(F)(F)F [1-(4-Pentyloxy-3-trifluoromethyl-phenyl)-3-(pyridine-3-carbonyl)-thiourea] | effectively compete | exhibit anti-HCV activities in replicon cells | – | – | –
CCCCCOc1ccc(NC(=S)NC(=O)c2cc3cc(N=[N+]=[N-])ccc3o2)cc1C(F)(F)F [1-(5-Azido-benzofuran-2-carbonyl)-3-(4-pentyloxy-3-trifluoromethyl-phenyl)-thiourea] | – | – | binds to synthetic NS4A; also recorded: two radioactive bands are shown in the gel | only weak binding signals | only weak binding signals
CCCCCOc1ccc(NC(=O)NC(=O)c2cc3cc(N=[N+]=[N-])ccc3o2)cc1C(F)(F)F [1-(5-Azido-benzofuran-2-carbonyl)-3-(4-pentyloxy-3-trifluoromethyl-phenyl)-urea] | does not compete; also recorded: appears to abolish this competition capacity | does not exhibit any anti-HCV activity in replicon cells | – | – | –
CCCCCOc1ccc(NC(=S)NC(=O)c2cc3ccccc3o2)cc1C(F)(F)F [1-(Benzofuran-2-carbonyl)-3-(4-pentyloxy-3-trifluoromethyl-phenyl)-thiourea] | effectively compete | exhibit anti-HCV activities in replicon cells | – | – | –

Source: patent US20080207760A1, “Pharmaceutical Compositions For and Methods of Inhibiting Hcv” (priority 2005, published 2008)
